In ChEMBL document CHEMBL4602682, “Ikoamide, an Antimalarial Lipopeptide from an Okeania sp. Marine Cyanobacterium” (J Nat Prod, 2020):

Experiments:
Plasmodium falciparum = assay: Antiplasmodial activity against asexual erythrocytic stage of Plasmodium falciparum 3D7 assessed as reduction in parasite growth after 72 hrs by LDH assay; format: functional, organism-based; settings: 3D7, 72 h
HeLa = assay: Cytotoxicity against human HeLa cells at 10 uM incubated for 72 hrs by MTT assay; format: cell-based
HL-60 [1] = assay: Cytotoxicity against human HL60 cells at 10 uM incubated for 72 hrs by MTT assay; format: cell-based; settings: hl-60, 72 h
HL-60 [2] = assay: Cytotoxicity against human HL60 cells incubated for 72 hrs by MTT assay; format: cell-based; settings: HL-60, 72 h

SMILES | IC50 (Plasmodium falciparum) | Activity (HeLa) | Activity (HL-60 [1]) | IC50 (HL-60 [2])
CCC[C@H](C[C@@H](CC(=O)N(C)[C@@H](C(=O)N[C@H](CO)C(=O)N[C@H](CC(C)C)C(=O)N(C)[C@@H](CC(C)C)C(=O)N[C@H](C(=O)N(C)[C@H](C(=O)N(C)[C@@H](CCC(N)=O)C(=O)N(C)[C@@H](Cc1ccc(OC)cc1)C(=O)OC)[C@@H](C)CC)[C@@H](C)O)[C@@H](C)CC)OC)OC | 140 nM | Non-Toxic | Non-Toxic | –
COc1cccc2c1C(=O)c1c(O)c3c(c(O)c1C2=O)C[C@@](O)(C(=O)CO)C[C@@H]3O[C@H]1C[C@H](N)[C@H](O)[C@H](C)O1 [DOXORUBICIN] | – | – | – | 46 nM
